# Laboratory results: patent US20210078958A1, “QUINAZOLINE DERIVATIVE AND USE THEREOF” (MEDSHINE DISCOVERY INC., priority 2017, published 2021)
# Like-named read-outs stand apart in the source and are kept apart here.
# Tests used:
# [1] = molecular target: T1, CYP2C19 (Homo sapiens, UniProt P33261); experiment: inhibition of CYP enzyme activity in human liver microsome, CYP2C19; type: in vitro ADME
# T1 construct: in the assay of CYP enzyme activity in human liver microsome; from tissue; host or cells: human liver microsome
# Excerpt: (§1) The results of the compounds disclosed herein and the reference compound Poziotinib in the assay of CYP enzyme activity in human liver microsome were shown in the following table (Table 8).
# [2] = molecular target: T2, CYP1A2 (Homo sapiens, UniProt P05177); experiment: inhibition of CYP enzyme activity in human liver microsome, CYP1A2; type: in vitro ADME
# T2 construct: in the assay of CYP enzyme activity in human liver microsome; from tissue; host or cells: human liver microsome
# T2 sequence (P05177 1-516): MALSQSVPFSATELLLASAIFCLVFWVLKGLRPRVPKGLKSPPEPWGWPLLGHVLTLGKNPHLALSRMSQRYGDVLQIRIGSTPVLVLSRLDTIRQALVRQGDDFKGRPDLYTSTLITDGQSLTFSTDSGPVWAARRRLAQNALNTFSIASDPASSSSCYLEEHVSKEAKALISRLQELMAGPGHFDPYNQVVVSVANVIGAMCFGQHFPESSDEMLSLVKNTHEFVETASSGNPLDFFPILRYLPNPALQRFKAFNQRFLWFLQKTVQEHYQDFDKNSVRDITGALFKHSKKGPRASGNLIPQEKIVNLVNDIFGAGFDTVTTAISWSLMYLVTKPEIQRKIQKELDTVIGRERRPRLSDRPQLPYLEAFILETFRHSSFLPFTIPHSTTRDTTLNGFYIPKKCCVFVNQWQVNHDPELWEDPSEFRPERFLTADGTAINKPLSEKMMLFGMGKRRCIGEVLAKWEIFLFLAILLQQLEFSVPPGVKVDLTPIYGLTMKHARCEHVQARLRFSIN
# Excerpt: as §1
# [3] = molecular target: HER4 (ErbB4) (Homo sapiens, UniProt Q15303); experiment: in vitro enzyme activity, HER4 (ErbB4); type: biochemical; settings: human ErbB4, [γ-33P]ATP, poly(Glu, Tyr) substrate
# Summary of the method: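 Radiometric filter-binding assay: human ErbB1, ErbB2 or ErbB4 (4-20 ng) with poly(Glu,Tyr) 4:1 substrate, MnCl2 and [γ-33P]ATP, 10 min at 30 °C, stopped with 3% phosphoric acid. Incorporated 33P counted by scintillation and compared with internal control CPM.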
# [4] = Assay Example 7: pharmacokinetics in mice; type: in vivo; settings: mouse, female BALB/c mice, plasma, dose not given; for Tmax / half-life: oral; for AUC(0-t) / Cmax: oral plasma exposure
# Protocol: Purpose of the assay: this assay aims to investigate in vivo plasma pharmacokinetics of the example compounds disclosed herein and the reference compound in female BALB/c mice after the single intravenous injection and intragastric administration thereof.
# Animals of the assay: female BALB/c nude mice, 7-9 weeks old, weighted 17-23 grams; supplier: shanghai sippr bk laboratory animals Ltd.
# Sample collection: at each time point, a 0.03 mL blood sample was collected from the saphenous vein of the test animal by puncture, and the actual blood collection time was recorded. All blood samples were added into commercial EDTA-K2 anticoagulation tubes with a specification of 1.5 mL (the supplier was Jiangsu KANGJIAN Medical Apparatus Co., Ltd.). Within half an hour after the blood sample was collected, the blood sample was centrifuged at 3000 g at 4° C. for 10 minutes, and the supernatant plasma was drawn, quickly placed in dry ice, and stored in a refrigerator at −80° C. for LC-MS/MS analysis.
# Data analysis: Plasma concentrations were processed using a non-compartmental model of WinNonlin™ Version6.3 (Pharsight, MountainView, Calif.) pharmacokinetic software, and pharmacokinetic parameters Cmax, Tmax, T1/2, and AUC0-last were calculated using a linear log trapezoid method.
# [5] = tested on: OE21 cell; experiment: inhibitory activity on cell proliferation (Cell-Titer-Glo), OE21; type: cell-based; settings: Homo sapiens, OE21, 72 h, incubation for 3 days
# Excerpt: Purpose of the assay: to detect the inhibitory activity of the test compounds on cell proliferation.
# Principle of the assay: the luciferase in a Cell-Titer-Glo reagent produces oxidized luciferin with luciferin, oxygen and ATP as reaction substrates, and releases energy in the form of light. Since the luciferase reaction requires ATP, the total amount of light generated by the reaction is proportional to the total amount of ATP that reflects cell viability.
# Cell Titer-Glo cell viability assay kit with luminescence (Promega #G7573)
# According to the schematic diagram of the cell seed plate, cells were seeded in a 384- or 96-well plate at a density of 1000 cells per well and 25 μL per well, and 25 μL of PBS was added to the wells near edge of the place where no cells were seeded.
# (1) The stock solution of the compounds has a concentration of 10 mM, and the compounds were diluted with DMSO to an initial concentration of 4 mM. The compounds were added to the plate with stock solution of compounds, 9 μL per well.
# (2) The compounds were diluted with an ECHO liquid workstation, where 125 nL of compounds were added to each well of the cell plate, 125 nL of DMSO was added to each of the cell well in columns 2 and 23, and 125 nL of DMSO was added to each PBS well in columns 1 and 24.
# 2.3 After addition of the compounds, the cell plate was centrifuged at 1000 rpm for 1 min, and then placed in a 37° C., 5% CO2 incubator for incubation for 3 days.
# The cell plate was taken out from the incubator and equilibrated at room temperature for 30 minutes. 25 μL of Cell-Titer-Glo reagent was added to each well, shaken for one minute to allow well mixed, and centrifuged at 1000 rpm for 1 minute. After 10 minutes, the plate was read on PerkinElmer Envision, and the […] reading time was set to 0.2 second.
# T1 sequence (P33261 whole entry): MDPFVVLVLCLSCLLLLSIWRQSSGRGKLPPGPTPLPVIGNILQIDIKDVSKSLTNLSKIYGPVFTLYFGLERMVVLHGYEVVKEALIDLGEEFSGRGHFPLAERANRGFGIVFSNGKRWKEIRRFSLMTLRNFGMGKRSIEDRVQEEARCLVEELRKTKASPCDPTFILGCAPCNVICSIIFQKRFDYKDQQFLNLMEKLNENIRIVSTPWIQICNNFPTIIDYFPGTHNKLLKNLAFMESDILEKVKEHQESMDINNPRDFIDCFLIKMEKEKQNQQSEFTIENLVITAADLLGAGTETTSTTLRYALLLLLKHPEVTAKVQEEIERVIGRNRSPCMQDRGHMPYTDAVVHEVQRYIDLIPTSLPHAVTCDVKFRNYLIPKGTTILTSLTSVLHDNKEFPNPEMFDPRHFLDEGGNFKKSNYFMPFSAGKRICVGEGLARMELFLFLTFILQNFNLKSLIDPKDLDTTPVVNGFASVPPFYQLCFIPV
# HER4 (ErbB4), sequence (Q15303 26-1308): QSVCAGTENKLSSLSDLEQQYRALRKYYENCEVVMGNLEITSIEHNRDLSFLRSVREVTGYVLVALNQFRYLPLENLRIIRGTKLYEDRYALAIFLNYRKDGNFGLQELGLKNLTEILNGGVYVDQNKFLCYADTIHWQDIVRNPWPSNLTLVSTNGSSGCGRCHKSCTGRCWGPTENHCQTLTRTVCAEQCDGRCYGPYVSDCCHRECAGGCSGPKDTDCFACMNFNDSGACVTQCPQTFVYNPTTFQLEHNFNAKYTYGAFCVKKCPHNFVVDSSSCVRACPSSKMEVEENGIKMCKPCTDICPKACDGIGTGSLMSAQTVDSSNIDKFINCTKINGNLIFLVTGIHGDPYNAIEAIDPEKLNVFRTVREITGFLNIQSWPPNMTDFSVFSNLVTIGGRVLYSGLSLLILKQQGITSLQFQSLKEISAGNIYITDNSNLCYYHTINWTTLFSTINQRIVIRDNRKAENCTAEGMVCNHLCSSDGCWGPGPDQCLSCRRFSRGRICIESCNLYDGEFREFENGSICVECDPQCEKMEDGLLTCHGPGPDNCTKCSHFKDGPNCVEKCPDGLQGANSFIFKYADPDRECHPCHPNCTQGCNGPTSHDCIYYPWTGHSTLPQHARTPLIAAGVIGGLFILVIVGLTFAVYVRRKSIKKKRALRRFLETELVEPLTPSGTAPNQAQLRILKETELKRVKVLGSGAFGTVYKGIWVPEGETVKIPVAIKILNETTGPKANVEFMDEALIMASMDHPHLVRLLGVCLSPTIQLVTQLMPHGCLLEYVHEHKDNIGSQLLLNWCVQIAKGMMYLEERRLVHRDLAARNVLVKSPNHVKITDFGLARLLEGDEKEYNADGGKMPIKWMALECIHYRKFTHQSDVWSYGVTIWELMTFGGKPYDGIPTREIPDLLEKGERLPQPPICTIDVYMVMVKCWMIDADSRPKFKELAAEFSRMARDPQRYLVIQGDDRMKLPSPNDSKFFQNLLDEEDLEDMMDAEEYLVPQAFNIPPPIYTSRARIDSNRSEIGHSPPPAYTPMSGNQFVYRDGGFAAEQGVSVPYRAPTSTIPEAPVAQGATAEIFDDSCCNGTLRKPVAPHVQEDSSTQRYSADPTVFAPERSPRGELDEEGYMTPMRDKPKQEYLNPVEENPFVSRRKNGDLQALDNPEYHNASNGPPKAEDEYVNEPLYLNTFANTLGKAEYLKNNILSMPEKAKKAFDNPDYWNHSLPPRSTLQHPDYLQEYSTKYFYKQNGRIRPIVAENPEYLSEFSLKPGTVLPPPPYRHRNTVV
smiles,measurement,setting,value
C=CC(=O)N1[C@@H]2CC[C@H]1C[C@H](Nc1cc3c(Nc4ccc(Cl)c(Cl)c4F)ncnc3cc1OC)C2 [Example 38],IC50,[1],11000 nM
same,inhibition of CYP enzyme CYP2C19,[1],comparable to that of the reference compound Poziotinib
same,IC50,[2],> 50000 nM
same,inhibition of CYP enzyme CYP1A2,[2]; microsomes,no inhibitory activity
same,IC50,[3],3 nM
same,Tmax,[4],2 h
same,half-life,[4],3.2 h
same,AUC(0-t),[4],122 µM·h
same,Cmax,[4],10.6 µM
same,IC50,[5],0.52 nM
C=CC(=O)N1[C@@H]2CC[C@H]1C[C@H](Oc1cc3c(Nc4ccc(Cl)c(Cl)c4F)ncnc3cc1OC)C2 [Example 8],IC50,[3],3.5 nM
same,IC50,[5],0.47 nM
"C=CC(=O)N1CCC(Oc2cc3c(Nc4ccc(Cl)c(Cl)c4F)ncnc3cc2OC)CC1 [Poziotinib, reference compound]",IC50,[1],12000 nM
same,inhibition of CYP enzyme CYP1A2,[2]; human liver microsome,no inhibitory activity
same,IC50,"[2]; human liver microsome, read-out: inhibition of CYP enzyme CYP1A2",> 50000 nM
same,Tmax,[4],0.25 h
same,half-life,[4],2.3 h
same,AUC(0-t),[4],97.9 µM·h
same,Cmax,[4],17.3 µM
